Data taken from the NIST ThermoML archive (doi:10.1016/j.tca.2018.08.017).
Where “and” joins values, the source holds several entries; their conditions need not be identical. Equal values may be shown once.

Conditions: 101.33 kPa, Liquid

CCCCCCCCCCCCCCCCCC [octadecane]
viscosity
Conditions	Concentric cylinders viscometry	Cone and plate viscometry
299.75 K	–	3.95 mPa·s
299.95 K	–	3.92 mPa·s
300.05 K	–	4.21 mPa·s
300.15 K	–	3.91 mPa·s and 4.12 mPa·s
300.35 K	–	3.89 mPa·s and 4.09 mPa·s
300.55 K	–	3.86 mPa·s
300.65 K	–	4.06 mPa·s and 4.17 mPa·s
300.75 K	–	3.84 mPa·s
300.85 K	–	3.84 mPa·s and 4.04 mPa·s
300.95 K	–	3.82 mPa·s
300.96 K	4.095 mPa·s	–
301.15 K	–	3.81 mPa·s and 4.02 mPa·s and 4.13 mPa·s
301.29 K	4.068 mPa·s [middle of 4 runs]	–
301.35 K	–	3.8 mPa·s and 4 mPa·s
301.36 K	4.052 mPa·s	–
301.55 K	–	3.8 mPa·s
301.65 K	–	3.98 mPa·s and 4.09 mPa·s
301.75 K	–	3.76 mPa·s and 3.74 mPa·s
301.76 K	4.011 mPa·s	–
301.84 K	4.009 mPa·s	–
301.85 K	–	3.96 mPa·s
301.95 K	–	3.77 mPa·s
302.05 K	–	3.71 mPa·s
302.15 K	–	3.76 mPa·s and 3.93 mPa·s and 4.04 mPa·s
302.18 K	3.967 mPa·s	–
302.35 K	–	3.72 mPa·s and 3.91 mPa·s
302.45 K	–	3.69 mPa·s
302.55 K	–	3.73 mPa·s
302.58 K	3.927 mPa·s	–
302.64 K	3.926 mPa·s	–
302.65 K	–	3.88 mPa·s and 4.01 mPa·s
302.75 K	–	3.71 mPa·s
302.85 K	–	3.85 mPa·s and 3.66 mPa·s
302.95 K	–	3.69 mPa·s
302.96 K	3.884 mPa·s	–
303.15 K	–	3.72 mPa·s [middle of 6 runs]
303.35 K	–	3.67 mPa·s and 3.81 mPa·s
303.38 K	3.837 mPa·s [middle of 5 runs]	–
303.4 K	3.838 mPa·s	–
303.42 K	3.846 mPa·s	–
303.55 K	–	3.63 mPa·s and 3.61 mPa·s
303.65 K	–	3.78 mPa·s and 3.93 mPa·s
303.75 K	–	3.64 mPa·s
303.81 K	3.799 mPa·s	–
303.85 K	–	3.77 mPa·s and 3.59 mPa·s
303.95 K	–	3.65 mPa·s
304.15 K	–	3.6 mPa·s and 3.75 mPa·s and 3.89 mPa·s
304.19 K	3.769 mPa·s	–
304.21 K	3.762 mPa·s	–
304.25 K	–	3.56 mPa·s
304.35 K	–	3.58 mPa·s and 3.73 mPa·s
304.55 K	–	3.57 mPa·s and 3.53 mPa·s
304.58 K	3.727 mPa·s	–
304.65 K	–	3.7 mPa·s and 3.85 mPa·s
304.75 K	–	3.56 mPa·s
304.85 K	–	3.69 mPa·s
304.92 K	3.694 mPa·s	–
304.95 K	–	3.53 mPa·s and 3.51 mPa·s
305.08 K	3.678 mPa·s	–
305.15 K	–	3.55 mPa·s and 3.67 mPa·s and 3.81 mPa·s
305.25 K	–	3.48 mPa·s
305.35 K	–	3.5 mPa·s and 3.64 mPa·s
305.46 K	3.642 mPa·s	–
305.55 K	–	3.5 mPa·s
305.65 K	–	3.62 mPa·s and 3.47 mPa·s and 3.77 mPa·s
305.7 K	3.624 mPa·s	–
305.75 K	–	3.48 mPa·s
305.84 K	3.606 mPa·s	–
305.85 K	–	3.6 mPa·s
305.95 K	–	3.46 mPa·s
306.05 K	–	3.43 mPa·s
306.15 K	–	3.47 mPa·s and 3.58 mPa·s and 3.72 mPa·s
306.23 K	3.571 mPa·s	–
306.35 K	–	3.47 mPa·s and 3.56 mPa·s and 3.42 mPa·s
306.42 K	3.556 mPa·s	–
306.55 K	–	3.44 mPa·s
306.61 K	3.538 mPa·s	–
306.65 K	–	3.54 mPa·s and 3.69 mPa·s
306.75 K	–	3.42 mPa·s and 3.39 mPa·s
306.85 K	–	3.52 mPa·s
306.95 K	–	3.43 mPa·s
306.98 K	3.502 mPa·s	–
307.05 K	–	3.36 mPa·s
307.15 K	–	3.42 mPa·s and 3.5 mPa·s and 3.66 mPa·s
307.3 K	3.478 mPa·s	–
307.35 K	–	3.4 mPa·s and 3.49 mPa·s
307.37 K	3.469 mPa·s	–
307.45 K	–	3.35 mPa·s
307.55 K	–	3.39 mPa·s
307.65 K	–	3.47 mPa·s and 3.62 mPa·s
307.72 K	3.438 mPa·s	–
307.75 K	–	3.38 mPa·s and 3.32 mPa·s
307.84 K	3.426 mPa·s and 3.427 mPa·s	–
307.85 K	3.426 mPa·s	3.45 mPa·s
307.87 K	3.426 mPa·s	–
307.93 K	3.424 mPa·s	–
307.95 K	–	3.35 mPa·s
308.07 K	3.413 mPa·s	–
308.11 K	3.404 mPa·s	–
308.15 K	–	3.35 mPa·s [middle of 6 runs]
308.35 K	–	3.31 mPa·s and 3.42 mPa·s
308.55 K	–	3.29 mPa·s and 3.28 mPa·s
308.59 K	3.363 mPa·s	–
308.65 K	–	3.39 mPa·s and 3.53 mPa·s
308.75 K	–	3.29 mPa·s
308.83 K	3.349 mPa·s	–
308.85 K	–	3.37 mPa·s and 3.26 mPa·s
308.95 K	–	3.29 mPa·s
308.96 K	3.333 mPa·s	–
309.15 K	–	3.27 mPa·s and 3.36 mPa·s and 3.49 mPa·s
309.25 K	–	3.25 mPa·s
309.3 K	3.306 mPa·s	–
309.35 K	–	3.26 mPa·s and 3.34 mPa·s
309.55 K	–	3.28 mPa·s and 3.22 mPa·s
309.58 K	3.286 mPa·s	–
309.65 K	–	3.32 mPa·s and 3.45 mPa·s
